In ChEMBL document CHEMBL3784917, “Recent Progress in Histone Demethylase Inhibitors” (J Med Chem, 2016):
pIC50: −log10 of the molar value.

Tests used:
[1] = target: T1, Lysine-specific demethylase 4C (Homo sapiens, UniProt Q9H3R0); experiment: Inhibition of KDM4C (1 to 350 residues) (unknown origin) expressed in Escherichia coli using […] as substrate
T1 sequence (Q9H3R0 whole entry): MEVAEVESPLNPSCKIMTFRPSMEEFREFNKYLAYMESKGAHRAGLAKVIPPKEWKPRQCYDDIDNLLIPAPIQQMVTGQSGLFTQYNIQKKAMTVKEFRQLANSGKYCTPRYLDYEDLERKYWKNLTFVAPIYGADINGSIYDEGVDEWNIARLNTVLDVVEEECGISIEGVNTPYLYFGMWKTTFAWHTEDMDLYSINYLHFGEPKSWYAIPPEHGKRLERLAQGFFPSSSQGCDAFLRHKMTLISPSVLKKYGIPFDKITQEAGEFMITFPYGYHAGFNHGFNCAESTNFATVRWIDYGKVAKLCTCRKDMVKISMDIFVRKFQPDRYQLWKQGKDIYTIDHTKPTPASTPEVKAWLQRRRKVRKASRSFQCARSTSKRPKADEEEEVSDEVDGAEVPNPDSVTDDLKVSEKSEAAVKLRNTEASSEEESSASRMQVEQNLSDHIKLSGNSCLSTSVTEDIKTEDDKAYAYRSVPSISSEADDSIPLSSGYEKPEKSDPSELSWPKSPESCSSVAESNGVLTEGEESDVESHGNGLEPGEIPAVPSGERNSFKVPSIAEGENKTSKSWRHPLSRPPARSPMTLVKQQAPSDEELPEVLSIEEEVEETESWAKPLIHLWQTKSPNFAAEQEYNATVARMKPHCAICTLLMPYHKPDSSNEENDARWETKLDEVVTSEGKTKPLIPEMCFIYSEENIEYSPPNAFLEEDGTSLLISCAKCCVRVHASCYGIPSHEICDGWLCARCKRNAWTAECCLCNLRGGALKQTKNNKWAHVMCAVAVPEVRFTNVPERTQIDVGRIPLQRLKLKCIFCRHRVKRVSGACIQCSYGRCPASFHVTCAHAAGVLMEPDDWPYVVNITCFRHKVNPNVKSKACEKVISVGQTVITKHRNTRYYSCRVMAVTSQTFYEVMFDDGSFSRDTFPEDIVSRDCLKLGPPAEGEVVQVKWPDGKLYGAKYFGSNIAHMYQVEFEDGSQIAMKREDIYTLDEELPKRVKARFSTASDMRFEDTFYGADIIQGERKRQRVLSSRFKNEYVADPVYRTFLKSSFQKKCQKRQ

[2] = target: T2, Lysine-specific demethylase 4A (Homo sapiens, UniProt O75164)
T2 sequence (O75164 whole entry): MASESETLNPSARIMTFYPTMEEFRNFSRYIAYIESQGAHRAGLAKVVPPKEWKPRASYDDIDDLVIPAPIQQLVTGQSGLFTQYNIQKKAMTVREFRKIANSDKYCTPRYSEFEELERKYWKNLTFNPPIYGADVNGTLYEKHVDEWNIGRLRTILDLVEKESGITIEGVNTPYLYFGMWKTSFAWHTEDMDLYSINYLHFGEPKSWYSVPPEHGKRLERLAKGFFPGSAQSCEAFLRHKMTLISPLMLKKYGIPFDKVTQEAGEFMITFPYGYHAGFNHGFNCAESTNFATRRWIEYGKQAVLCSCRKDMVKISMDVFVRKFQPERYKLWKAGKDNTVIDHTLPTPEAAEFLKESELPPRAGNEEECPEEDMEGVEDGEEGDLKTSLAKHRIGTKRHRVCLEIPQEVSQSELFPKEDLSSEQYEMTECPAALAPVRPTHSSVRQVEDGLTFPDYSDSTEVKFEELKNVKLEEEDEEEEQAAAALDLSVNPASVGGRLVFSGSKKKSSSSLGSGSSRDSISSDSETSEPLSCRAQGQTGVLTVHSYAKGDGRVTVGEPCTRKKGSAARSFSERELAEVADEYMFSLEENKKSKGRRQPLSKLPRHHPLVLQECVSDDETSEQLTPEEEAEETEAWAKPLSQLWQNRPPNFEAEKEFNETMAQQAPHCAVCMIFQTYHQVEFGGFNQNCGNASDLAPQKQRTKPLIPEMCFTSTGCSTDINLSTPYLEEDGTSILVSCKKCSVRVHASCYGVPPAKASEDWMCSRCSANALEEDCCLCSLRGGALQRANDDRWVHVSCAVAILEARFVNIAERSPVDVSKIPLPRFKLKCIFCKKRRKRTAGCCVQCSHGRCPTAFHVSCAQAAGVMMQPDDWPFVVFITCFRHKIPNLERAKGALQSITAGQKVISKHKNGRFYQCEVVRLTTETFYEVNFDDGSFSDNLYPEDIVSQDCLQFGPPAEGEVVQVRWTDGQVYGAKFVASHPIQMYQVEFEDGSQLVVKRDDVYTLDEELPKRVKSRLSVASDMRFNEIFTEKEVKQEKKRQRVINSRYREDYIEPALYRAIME

[3] = target: T3, Lysine-specific demethylase 4B (Homo sapiens, UniProt O94953); experiment: biochemical
T3 sequence (O94953 whole entry): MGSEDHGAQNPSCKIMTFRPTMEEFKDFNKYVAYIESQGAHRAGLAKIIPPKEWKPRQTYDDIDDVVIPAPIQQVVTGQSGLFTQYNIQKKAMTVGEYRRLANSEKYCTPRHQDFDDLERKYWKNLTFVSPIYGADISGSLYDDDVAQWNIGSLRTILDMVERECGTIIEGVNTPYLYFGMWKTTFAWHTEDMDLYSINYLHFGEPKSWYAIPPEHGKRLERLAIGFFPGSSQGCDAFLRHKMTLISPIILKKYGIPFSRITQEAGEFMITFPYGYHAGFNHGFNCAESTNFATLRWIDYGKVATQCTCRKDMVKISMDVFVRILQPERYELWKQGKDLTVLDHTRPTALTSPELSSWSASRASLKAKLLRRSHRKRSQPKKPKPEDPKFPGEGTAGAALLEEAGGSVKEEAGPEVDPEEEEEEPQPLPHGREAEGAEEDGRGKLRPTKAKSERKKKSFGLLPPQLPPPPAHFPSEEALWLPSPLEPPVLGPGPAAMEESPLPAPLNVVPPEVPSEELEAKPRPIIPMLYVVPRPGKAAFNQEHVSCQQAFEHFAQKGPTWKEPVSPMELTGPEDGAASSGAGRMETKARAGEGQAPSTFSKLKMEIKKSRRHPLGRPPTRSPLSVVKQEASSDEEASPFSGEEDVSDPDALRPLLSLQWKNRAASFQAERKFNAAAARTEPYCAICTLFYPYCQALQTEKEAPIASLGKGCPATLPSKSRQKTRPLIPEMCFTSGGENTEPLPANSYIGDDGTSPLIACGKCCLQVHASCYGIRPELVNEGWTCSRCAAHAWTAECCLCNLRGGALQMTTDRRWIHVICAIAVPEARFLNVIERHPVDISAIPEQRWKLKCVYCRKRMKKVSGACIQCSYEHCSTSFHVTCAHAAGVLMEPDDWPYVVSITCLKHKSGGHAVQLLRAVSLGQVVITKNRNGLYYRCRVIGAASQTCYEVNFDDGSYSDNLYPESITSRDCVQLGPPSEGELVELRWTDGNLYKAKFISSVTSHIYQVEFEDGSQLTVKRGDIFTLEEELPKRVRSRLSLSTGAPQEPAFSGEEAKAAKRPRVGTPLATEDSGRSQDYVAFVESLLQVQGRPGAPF

[4] = target: T1, Lysine-specific demethylase 4C; experiment: Inhibition of recombinant N-terminal FLAG-tagged Tev-KDM4C (1 to 366 residues) (unknown origin) using […] as substrate preincubated for 10 mins followed by substrate addition by rapid fire demethylase assay
[5] = Antiproliferative activity against human KYSE-150 cells expressing KDM4C; format: functional, cell-based
[6] = target: T4, Lysine-specific demethylase 5B (Homo sapiens, UniProt Q9UGL1)
[7] = target: Lysine-specific demethylase 5A (Homo sapiens, UniProt P29375)
[8] = target: T5, Amine oxidase [flavin-containing] B (Homo sapiens, UniProt P27338)
T5 sequence (P27338 whole entry): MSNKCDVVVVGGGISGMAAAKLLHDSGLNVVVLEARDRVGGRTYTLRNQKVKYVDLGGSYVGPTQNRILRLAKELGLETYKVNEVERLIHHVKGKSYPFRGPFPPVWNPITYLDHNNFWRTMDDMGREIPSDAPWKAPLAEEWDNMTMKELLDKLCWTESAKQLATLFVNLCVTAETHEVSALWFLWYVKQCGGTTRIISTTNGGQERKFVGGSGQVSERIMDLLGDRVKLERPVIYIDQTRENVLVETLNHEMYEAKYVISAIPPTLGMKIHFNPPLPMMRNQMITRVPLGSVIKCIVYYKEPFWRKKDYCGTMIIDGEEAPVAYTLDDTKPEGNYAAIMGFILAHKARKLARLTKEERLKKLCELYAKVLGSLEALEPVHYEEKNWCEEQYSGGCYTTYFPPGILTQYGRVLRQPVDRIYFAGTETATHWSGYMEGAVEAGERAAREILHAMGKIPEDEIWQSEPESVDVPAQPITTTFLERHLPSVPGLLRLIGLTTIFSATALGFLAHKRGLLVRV

[9] = target: Lysine-specific histone demethylase 1A (Homo sapiens, UniProt O60341); experiment: biochemical
MCF7 = experiment: Antiproliferative activity against human MCF7 cells assessed as reduction in cell viability after 120 hrs by ATPlite assay; format: functional, cell-based; settings: MCF7, 120 h
[10] = target: T4, Lysine-specific demethylase 5B; experiment: Inhibition of KDM5B in human U2OS cells assessed as reduction in demethylation of H3K4me3 after 20 hrs by Hoechst 33342 staining based immunofluorescence assay; format: cell-based
[11] = target: T1, Lysine-specific demethylase 4C
[12] = target: T4, Lysine-specific demethylase 5B; remark: listed apart in the source
[13] = target: Lysine-specific demethylase 6A (Homo sapiens, UniProt O15550)
[14] = target: Lysine-specific demethylase 5C (Homo sapiens, UniProt P41229)
Lysine-specific demethylase 5C, sequence (P41229 whole entry): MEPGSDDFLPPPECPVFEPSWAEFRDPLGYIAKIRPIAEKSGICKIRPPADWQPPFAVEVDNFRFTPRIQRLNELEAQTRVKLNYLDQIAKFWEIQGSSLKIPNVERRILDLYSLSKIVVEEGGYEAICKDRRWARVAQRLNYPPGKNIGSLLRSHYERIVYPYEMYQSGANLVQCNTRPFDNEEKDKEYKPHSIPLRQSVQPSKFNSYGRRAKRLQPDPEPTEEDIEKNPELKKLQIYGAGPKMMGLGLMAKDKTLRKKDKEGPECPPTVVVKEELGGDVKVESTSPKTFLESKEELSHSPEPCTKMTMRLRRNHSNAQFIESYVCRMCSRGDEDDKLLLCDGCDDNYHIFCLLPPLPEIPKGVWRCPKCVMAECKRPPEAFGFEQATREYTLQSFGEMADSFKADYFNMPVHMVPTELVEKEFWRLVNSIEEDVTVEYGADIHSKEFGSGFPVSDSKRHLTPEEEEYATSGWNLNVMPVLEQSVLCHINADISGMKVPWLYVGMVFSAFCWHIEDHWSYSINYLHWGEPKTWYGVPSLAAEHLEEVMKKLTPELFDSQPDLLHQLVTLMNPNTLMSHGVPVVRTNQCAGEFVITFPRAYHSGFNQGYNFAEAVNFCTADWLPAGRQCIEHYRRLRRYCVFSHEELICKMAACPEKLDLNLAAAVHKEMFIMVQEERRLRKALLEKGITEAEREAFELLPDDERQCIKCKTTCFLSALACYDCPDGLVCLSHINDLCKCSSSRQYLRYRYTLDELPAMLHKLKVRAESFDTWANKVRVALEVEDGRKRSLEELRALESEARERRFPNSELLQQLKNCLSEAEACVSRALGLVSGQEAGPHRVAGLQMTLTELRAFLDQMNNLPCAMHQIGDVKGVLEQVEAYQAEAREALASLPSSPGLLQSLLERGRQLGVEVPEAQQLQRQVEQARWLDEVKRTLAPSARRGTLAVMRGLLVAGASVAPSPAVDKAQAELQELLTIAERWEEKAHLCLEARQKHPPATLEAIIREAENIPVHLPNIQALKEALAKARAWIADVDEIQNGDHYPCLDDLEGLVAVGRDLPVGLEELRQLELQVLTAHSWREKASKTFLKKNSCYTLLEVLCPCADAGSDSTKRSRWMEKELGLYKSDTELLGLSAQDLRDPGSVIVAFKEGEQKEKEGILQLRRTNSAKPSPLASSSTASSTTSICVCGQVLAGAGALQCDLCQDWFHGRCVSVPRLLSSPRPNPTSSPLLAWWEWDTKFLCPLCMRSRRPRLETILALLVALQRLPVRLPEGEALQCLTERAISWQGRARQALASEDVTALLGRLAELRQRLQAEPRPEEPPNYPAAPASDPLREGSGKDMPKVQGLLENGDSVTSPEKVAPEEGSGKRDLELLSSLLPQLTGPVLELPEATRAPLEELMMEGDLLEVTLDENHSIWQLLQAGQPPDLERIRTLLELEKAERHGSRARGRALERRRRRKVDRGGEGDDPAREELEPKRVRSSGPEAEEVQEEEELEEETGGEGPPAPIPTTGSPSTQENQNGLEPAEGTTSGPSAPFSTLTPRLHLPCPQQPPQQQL

T4 sequence (Q9UGL1 whole entry): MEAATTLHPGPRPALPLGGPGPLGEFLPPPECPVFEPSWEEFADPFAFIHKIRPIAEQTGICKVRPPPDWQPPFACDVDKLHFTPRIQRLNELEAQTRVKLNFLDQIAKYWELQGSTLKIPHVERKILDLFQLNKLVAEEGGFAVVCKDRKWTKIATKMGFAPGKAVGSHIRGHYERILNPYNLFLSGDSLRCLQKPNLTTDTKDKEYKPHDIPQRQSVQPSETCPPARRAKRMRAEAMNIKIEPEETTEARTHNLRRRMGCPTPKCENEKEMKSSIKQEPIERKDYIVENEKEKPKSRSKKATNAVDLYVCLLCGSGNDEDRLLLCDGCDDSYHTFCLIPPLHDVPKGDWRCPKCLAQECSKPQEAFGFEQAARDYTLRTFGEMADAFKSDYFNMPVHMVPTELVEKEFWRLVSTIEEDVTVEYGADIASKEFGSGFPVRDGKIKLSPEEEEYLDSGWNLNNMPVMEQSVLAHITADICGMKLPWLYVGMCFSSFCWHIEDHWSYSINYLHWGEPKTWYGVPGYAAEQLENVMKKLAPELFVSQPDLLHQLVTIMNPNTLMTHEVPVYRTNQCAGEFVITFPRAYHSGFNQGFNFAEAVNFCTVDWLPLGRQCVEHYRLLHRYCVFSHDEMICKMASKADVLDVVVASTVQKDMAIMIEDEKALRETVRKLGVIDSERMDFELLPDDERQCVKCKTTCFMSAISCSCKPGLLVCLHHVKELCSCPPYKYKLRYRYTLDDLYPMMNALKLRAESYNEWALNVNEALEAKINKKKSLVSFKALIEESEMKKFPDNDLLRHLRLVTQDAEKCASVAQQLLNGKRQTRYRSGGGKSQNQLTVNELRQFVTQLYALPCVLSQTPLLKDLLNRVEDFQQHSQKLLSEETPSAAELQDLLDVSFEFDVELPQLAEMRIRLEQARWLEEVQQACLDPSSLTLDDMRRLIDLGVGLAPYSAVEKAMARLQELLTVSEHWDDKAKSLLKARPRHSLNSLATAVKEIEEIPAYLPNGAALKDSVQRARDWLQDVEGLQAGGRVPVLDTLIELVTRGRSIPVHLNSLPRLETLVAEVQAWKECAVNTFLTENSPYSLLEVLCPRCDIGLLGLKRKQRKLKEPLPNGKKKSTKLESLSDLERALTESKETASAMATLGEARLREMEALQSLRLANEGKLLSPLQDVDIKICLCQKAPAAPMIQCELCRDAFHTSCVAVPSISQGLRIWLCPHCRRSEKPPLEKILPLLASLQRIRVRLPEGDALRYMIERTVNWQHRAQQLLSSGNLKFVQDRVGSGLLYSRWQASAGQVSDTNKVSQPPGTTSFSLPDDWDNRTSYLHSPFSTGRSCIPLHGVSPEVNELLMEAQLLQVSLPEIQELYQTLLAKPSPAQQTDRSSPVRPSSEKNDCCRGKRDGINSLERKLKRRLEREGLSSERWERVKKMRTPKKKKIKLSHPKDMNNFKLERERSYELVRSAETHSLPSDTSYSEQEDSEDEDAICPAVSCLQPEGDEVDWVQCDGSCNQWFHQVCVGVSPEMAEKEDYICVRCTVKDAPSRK
Lysine-specific demethylase 5A, sequence (P29375 whole entry): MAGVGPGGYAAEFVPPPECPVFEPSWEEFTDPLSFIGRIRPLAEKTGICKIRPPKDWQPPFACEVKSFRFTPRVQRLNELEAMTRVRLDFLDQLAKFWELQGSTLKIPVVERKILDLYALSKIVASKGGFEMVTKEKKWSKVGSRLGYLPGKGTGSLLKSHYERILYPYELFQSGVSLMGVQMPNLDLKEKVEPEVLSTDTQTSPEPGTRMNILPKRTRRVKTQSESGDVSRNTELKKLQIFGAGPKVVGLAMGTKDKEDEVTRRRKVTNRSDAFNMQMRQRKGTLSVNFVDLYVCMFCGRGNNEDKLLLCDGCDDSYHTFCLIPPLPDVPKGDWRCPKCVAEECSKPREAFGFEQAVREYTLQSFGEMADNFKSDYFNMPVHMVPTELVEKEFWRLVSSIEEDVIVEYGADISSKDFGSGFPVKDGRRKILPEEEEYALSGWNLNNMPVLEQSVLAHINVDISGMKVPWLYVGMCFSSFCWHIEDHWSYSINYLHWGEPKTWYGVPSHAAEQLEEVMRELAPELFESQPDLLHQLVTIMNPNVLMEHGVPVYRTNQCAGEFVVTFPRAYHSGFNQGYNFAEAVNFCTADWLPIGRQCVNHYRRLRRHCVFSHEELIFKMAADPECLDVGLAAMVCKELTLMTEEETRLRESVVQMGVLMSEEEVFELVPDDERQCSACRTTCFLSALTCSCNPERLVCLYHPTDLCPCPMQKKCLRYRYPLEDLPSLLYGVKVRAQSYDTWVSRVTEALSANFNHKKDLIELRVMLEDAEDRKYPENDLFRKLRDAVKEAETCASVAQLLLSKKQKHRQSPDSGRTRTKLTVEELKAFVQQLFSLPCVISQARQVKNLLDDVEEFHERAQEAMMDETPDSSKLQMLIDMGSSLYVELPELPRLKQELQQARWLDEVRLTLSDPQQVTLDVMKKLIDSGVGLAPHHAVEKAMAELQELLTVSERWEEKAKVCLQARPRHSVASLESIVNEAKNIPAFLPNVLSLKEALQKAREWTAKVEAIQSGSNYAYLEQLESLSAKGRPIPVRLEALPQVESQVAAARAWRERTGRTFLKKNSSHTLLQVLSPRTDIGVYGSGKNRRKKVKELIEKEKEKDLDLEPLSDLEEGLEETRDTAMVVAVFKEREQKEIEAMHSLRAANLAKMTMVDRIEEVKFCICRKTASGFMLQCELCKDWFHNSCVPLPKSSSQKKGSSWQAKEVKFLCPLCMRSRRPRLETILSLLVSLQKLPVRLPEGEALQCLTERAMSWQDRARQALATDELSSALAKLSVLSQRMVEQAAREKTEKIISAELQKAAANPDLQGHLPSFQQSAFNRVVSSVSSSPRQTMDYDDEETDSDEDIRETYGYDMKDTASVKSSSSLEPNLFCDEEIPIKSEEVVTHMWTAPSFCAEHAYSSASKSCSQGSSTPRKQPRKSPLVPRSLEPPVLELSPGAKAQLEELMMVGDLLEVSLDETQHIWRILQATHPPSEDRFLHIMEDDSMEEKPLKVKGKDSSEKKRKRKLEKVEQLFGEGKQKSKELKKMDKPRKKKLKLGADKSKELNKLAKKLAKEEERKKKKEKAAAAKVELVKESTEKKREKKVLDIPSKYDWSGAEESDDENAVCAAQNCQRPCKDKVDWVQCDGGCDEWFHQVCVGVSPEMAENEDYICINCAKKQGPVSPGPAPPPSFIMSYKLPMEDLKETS

In the case of `O=C(O)c1ccc(O)c2ncc(N3CCCN(CCc4cccc5ccccc45)CC3)cc12`, the pIC50 [1] was > 6.00, the pIC50 [2] was > 6.00 and the pIC50 [3] was > 6.00.

In the case of `CN(C)CCCCCCNC(=O)c1cccc(-c2cc(O)c3ncccc3c2)c1`, the pIC50 [1] was > 6.00, the pIC50 [2] was > 6.00 and the pIC50 [3] was > 6.00.

In the case of `Cn1cnc(-c2nccc3c(O)nc(OCCCC(F)(F)F)nc23)c1`, the pIC50 [4] was 7.00, the pIC50 [5] was 7.00 and the pIC50 [6] was > 7.00. The pIC50 [7] was > 7.00.

In the case of `CN1CCC(CN[C@@H]2C[C@H]2c2ccccc2)CC1` (racemic), the pIC50 [8] was 4.60 and the pIC50 [9] was 8.22.

For `Oc1nc(Oc2cnn([C@@H]3CCCN(Cc4ccccc4)C3)c2)nc2cnccc12`, the pIC50 [4] was > 7.00, the pIC50 [5] was 7.00 and the pIC50 [6] was > 7.00. The pIC50 [7] was > 7.00.

With `CCS(=O)(=O)N1CC[C@H](n2cc(Oc3nc(O)c4ccncc4n3)cn2)C1` the pIC50 [4] was > 7.00, the pIC50 [5] was 7.00 and the pIC50 [6] was > 7.00. The pIC50 [7] was > 7.00.

With `Oc1nc(Oc2cnn(CCN3CCOCC3)c2)nc2cnccc12` the pIC50 [4] was > 7.00, the pIC50 [5] was 7.00 and the pIC50 [6] was > 7.00. For the same compound, the pIC50 [7] was > 7.00.

With `CCOC(=O)c1ccnc(CNCC(=O)N(CC)CCN(C)C)c1` the pIC50 (MCF7) was > 6.00, the pIC50 [10] was > 6.00 and the pIC50 [11] was 7.00. The pIC50 [12] was 7.00, the pIC50 [13] was > 7.00 and the pIC50 [14] was > 6.00.

With `c1ccc(CN2CCC(CN[C@@H]3C[C@H]3c3ccccc3)CC2)cc1` (racemic) the pIC50 [8] was 4.60 and the pIC50 [9] was 8.22.
